PubChem BioAssay AID330 (DTP/NCI, 2004)
“And” between values parts separate entries of the source, which are not always exact repeats. Equal entries are not always repeated. Toxic doses and inconclusive results are not listed. Rule for the calls: active = survival T/C of 150% or more; inactive = T/C below 125% in these data.

Test system: P388 leukemia ip, CD2F1 mice, survival T/C
Experiment: NCI In Vivo Anticancer Drug Screen. Data for tumor model P388 Leukemia (intraperitoneal) in CD2F1 (CDF1) mice
Settings: endpoint: median survival time, higher = longer survival
Method in brief: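 Mice carrying the transplanted tumor received test compound or vehicle. Survival was recorded in each group, and the value is the treated-group measurement divided by that of the vehicle-treated control group.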

[1] = dose: 25.0 mg/kg/injection, schedule: Q01DX009 (ip), vehicle: saline with Tween-80
[2] = dose: 200.0 mg/kg/injection, schedule: Q01DX009 (ip), vehicle: saline with Tween-80
[3] = dose: 50.0 mg/kg/injection, schedule: Q01DX005 (ip), vehicle: saline with Tween-80
[4] = dose: 100.0 mg/kg/injection, schedule: Q01DX005 (ip), vehicle: saline with Tween-80
[5] = dose: 50.0 mg/kg/injection, schedule: Q01DX009 (ip), vehicle: saline with Tween-80
[6] = dose: 100.0 mg/kg/injection, schedule: Q01DX009 (ip), vehicle: saline with Tween-80
[7] = dose: 25.0 mg/kg/injection, schedule: Q01DX009 (ip), vehicle: saline
[8] = dose: 50.0 mg/kg/injection, schedule: Q01DX009 (ip), vehicle: saline
[9] = dose: 100.0 mg/kg/injection, schedule: Q01DX009 (ip), vehicle: saline
[10] = dose: 100.0 mg/kg/injection, schedule: Q04DX003 (ip), vehicle: saline
[11] = dose: 200.0 mg/kg/injection, schedule: Q04DX003 (ip), vehicle: saline
[12] = dose: 50.0 mg/kg/injection, schedule: Q01DX005 (ip), vehicle: Klucel (hydroxypropylcellulose) (HPC)
[13] = dose: 100.0 mg/kg/injection, schedule: Q01DX005 (ip), vehicle: Klucel (hydroxypropylcellulose) (HPC)
[14] = dose: 200.0 mg/kg/injection, schedule: Q01DX005 (ip), vehicle: Klucel (hydroxypropylcellulose) (HPC)

Measured: T/C

O=C(Nc1cccc2c(OC(=O)C(Cl)Cl)c(N=Nc3ccc(S(=O)(=O)Nc4nccs4)cc3)cc(N=Nc3ccc(S(=O)(=O)Nc4nccs4)cc3)c12)C(Cl)Cl (tested in a mixture with another compound)
inactive: dose: 3.12 mg/kg/injection, schedule: Q01DX009 (ip), vehicle: saline with Tween-80 107 % of control | dose: 6.25 mg/kg/injection, schedule: Q01DX009 (ip), vehicle: saline with Tween-80 104 % of control | dose: 12.5 mg/kg/injection, schedule: Q01DX009 (ip), vehicle: saline with Tween-80 105 % of control and 110 % of control | [1] 105 % of control [middle of 5 runs] | [2] 108 % of control [middle of 8 runs]

O=C1c2cccc3c([N+](=O)[O-])ccc(c23)C(=O)N1NCCO
inactive: dose: 12.5 mg/kg/injection, schedule: Q01DX005 (ip), vehicle: saline with Tween-80 108 % of control | dose: 25.0 mg/kg/injection, schedule: Q01DX005 (ip), vehicle: saline with Tween-80 116 % of control | [3] 111 % of control and 116 % of control | [4] 114 % of control

CC1=CC(O)(C2(C)OC(C)(C)OC2=O)CCC1 (stereo not drawn)
inactive: dose: 100.0 mg/kg/injection, schedule: Q01DX001 (ip), vehicle: saline 100 % of control | dose: 200.0 mg/kg/injection, schedule: Q01DX001 (ip), vehicle: saline 100 % of control | dose: 400.0 mg/kg/injection, schedule: Q01DX001 (ip), vehicle: saline 100 % of control

Cn1c2cc(Cl)c(Cl)cc2nc2cc3c(cc21)c(Cl)c(=O)c1ccccc13
inactive: [5] 104 % of control | [6] 100 % of control | [2] 98 % of control

CC(=O)OCC(C)(C)COC1OCN(C(C)(C)C)CC1(C)C (stereo not drawn)
inactive: dose: 10.0 mg/kg/injection, schedule: Q01DX009 (ip), vehicle: saline with Tween-80 94 % of control | dose: 20.0 mg/kg/injection, schedule: Q01DX009 (ip), vehicle: saline with Tween-80 104 % of control | dose: 40.0 mg/kg/injection, schedule: Q01DX009 (ip), vehicle: saline with Tween-80 110 % of control

CCCCC(N)P(=O)(O)O (stereo not drawn)
inactive: dose: 12.5 mg/kg/injection, schedule: Q01DX009 (ip), vehicle: saline 87 % of control | [7] 92 % of control | [8] 86 % of control | [9] 97 % of control

OCc1ccc(O)c(O)c1
inactive: dose: 50.0 mg/kg/injection, schedule: Q01DX005 (ip), vehicle: saline 116 % of control | dose: 100.0 mg/kg/injection, schedule: Q01DX005 (ip), vehicle: saline 123 % of control | dose: 200.0 mg/kg/injection, schedule: Q01DX005 (ip), vehicle: saline 123 % of control | dose: 400.0 mg/kg/injection, schedule: Q01DX005 (ip), vehicle: saline 120 % of control

CSCc1cc(Cl)cc2c1OCOC2
inactive: [5] 102 % of control | [6] 96 % of control | [2] 100 % of control

C[N+]1(C)N=C([O-])N(Cc2ccccc2)C1=O
inactive: [10] 118 % of control | [11] 106 % of control

NS(=O)(=O)c1ccc(N=Cc2ccccc2)cc1
inactive: [6] 103 % of control | [2] 100 % of control | dose: 400.0 mg/kg/injection, schedule: Q01DX009 (ip), vehicle: saline with Tween-80 98 % of control

Cc1cccc(NC(=O)Nc2cccc(S(N)(=O)=O)c2)c1C
inactive: [5] 104 % of control | [6] 90 % of control | [2] 90 % of control

CC(C)(C)C1CN2CCO[Si](CC[Si](C)(C)C)(OCC2)O1 (stereo not drawn)
inactive: [12] 98 % of control | [13] 97 % of control | [14] 88 % of control

CCN(CC)CCOC(=O)c1ccc(NC(=O)Nc2ccc(C(=O)OCCN(CC)CC)cc2)cc1
inactive: [7] 102 % of control | [8] 107 % of control | [9] 118 % of control

O=C(NC(Cc1ccccc1)C(=O)O)C(Cl)Cl (stereo not drawn)
inactive: [12] 91 % of control | [13] 100 % of control | [14] 100 % of control

CCN=c1c([N+](=O)[O-])c(NC(=O)c2ccccc2)sn1CC
inactive: dose: 100.0 mg/kg/injection, schedule: Q04DX002 (ip), vehicle: Klucel (hydroxypropylcellulose) (HPC) 97 % of control | dose: 200.0 mg/kg/injection, schedule: Q04DX002 (ip), vehicle: Klucel (hydroxypropylcellulose) (HPC) 99 % of control | dose: 400.0 mg/kg/injection, schedule: Q04DX002 (ip), vehicle: Klucel (hydroxypropylcellulose) (HPC) 107 % of control

CCOc1ccc(NC2OC(CO)C(O)C(O)C2NC(C)=O)cc1 (stereo not drawn)
inactive: [3] 105 % of control | [4] 101 % of control | dose: 200.0 mg/kg/injection, schedule: Q01DX005 (ip), vehicle: saline with Tween-80 96 % of control

C=C1C(=O)OC2C1C(OC(=O)/C(C)=C/C)CC1(C)C(O)CCC(=C)C21 (stereo not drawn)
inactive: dose: 12.5 mg/kg/injection, schedule: Q01DX005 (ip), vehicle: Klucel (hydroxypropylcellulose) (HPC) 106 % of control | dose: 25.0 mg/kg/injection, schedule: Q01DX005 (ip), vehicle: Klucel (hydroxypropylcellulose) (HPC) 107 % of control | [12] 114 % of control | [13] 107 % of control | [14] 98 % of control

O=S(=O)(O)c1ccc(-c2c3nc(c(-c4ccc(S(=O)(=O)O)cc4)c4ccc([nH]4)c(-c4ccc(S(=O)(=O)O)cc4)c4nc(c(-c5ccc(S(=O)(=O)O)cc5)c5ccc2[nH]5)C=C4)C=C3)cc1
inactive: dose: 1.56 mg/kg/injection, schedule: Q01DX009 (ip), vehicle: distilled water + Tween-80 97 % of control | dose: 3.13 mg/kg/injection, schedule: Q01DX009 (ip), vehicle: distilled water + Tween-80 100 % of control | dose: 6.25 mg/kg/injection, schedule: Q01DX009 (ip), vehicle: distilled water + Tween-80 100 % of control | dose: 12.5 mg/kg/injection, schedule: Q01DX009 (ip), vehicle: distilled water + Tween-80 102 % of control and 109 % of control

CC(C)=CCC1=C(O)c2ccccc2C(=O)C1=O
inactive: dose: 75.0 mg/kg/injection, schedule: Q01DX010 (ip), vehicle: other 120 % of control | [9] 118 % of control | dose: 100.0 mg/kg/injection, schedule: Q01DX010 (ip), vehicle: other 110 % of control | [10] 110 % of control | dose: 125.0 mg/kg/injection, schedule: Q01DX010 (ip), vehicle: other 120 % of control | dose: 200.0 mg/kg/injection, schedule: Q01DX009 (ip), vehicle: saline 118 % of control | [11] 115 % of control | dose: 400.0 mg/kg/injection, schedule: Q01DX009 (ip), vehicle: saline 95 % of control | dose: 400.0 mg/kg/injection, schedule: Q04DX003 (ip), vehicle: saline 120 % of control

O=C1C=C(O)CC(c2ccccc2)N1 (stereo not drawn)
inactive: [12] 102 % of control | [13] 104 % of control | [14] 108 % of control

CC1(NC(=O)N(CCCl)N=O)CCCC1
inactive: [1] 104 % of control | [5] 104 % of control | dose: 50.0 mg/kg/injection, schedule: Q04DX003 (ip), vehicle: saline with Tween-80 100 % of control | [6] 109 % of control | dose: 100.0 mg/kg/injection, schedule: Q04DX003 (ip), vehicle: saline with Tween-80 100 % of control
